# Reference: PubChem BioAssay (NCI)
#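 Method: 48-hour compound exposure of cells in 96-well plates, five concentrations, linear interpolation of endpoints. GI50 = concentration required for 50% inhibition of growth. TGI denotes the concentration required for complete inhibition of growth.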
# Tests used:
# Test in all cases: growth of human tumour cells (NCI), 48 h
# [1] = test system: HT29 colon
# [2] = test system: RXF 393 renal
# [3] = test system: HCC-2998 colon
# [4] = test system: A549 NSCLC
# [5] = test system: ACHN renal
# [6] = test system: OVCAR-4 ovarian
# [7] = test system: SF-268 CNS
# [8] = test system: M14 melanoma
# [9] = test system: SK-MEL-2 melanoma
# [10] = test system: SW-620 colon
# [11] = test system: SNB-75 CNS
# [12] = test system: HS 578T breast
# [13] = test system: NCI-H460 lung
# [14] = test system: NCI-H23 lung
# [15] = test system: KM12 colon
# [16] = test system: T-47D breast
# [17] = test system: OVCAR-8 ovarian
# [18] = test system: UACC-62 melanoma
# [19] = test system: SF-295 CNS
# [20] = test system: OVCAR-3 ovarian
# [21] = test system: LOX IMVI melanoma
# [22] = test system: HOP-62 NSCLC
# [23] = test system: OVCAR-5 ovarian
# [24] = test system: PC-3 prostate
# [25] = test system: NCI-H522 lung
# [26] = test system: IGROV1 ovarian
# [27] = test system: UACC-257 melanoma
# [28] = test system: CAKI-1 renal
# [29] = test system: SN12C renal
# [30] = test system: MCF7 breast
# [31] = test system: HOP-92 NSCLC
# [32] = test system: MDA-MB-231 breast
# [33] = test system: 786-0 renal
# [34] = test system: SK-MEL-28 melanoma
# [35] = test system: SK-OV-3 ovarian
# [36] = test system: SF-539 CNS
# [37] = test system: NCI/ADR-RES ovarian
# [38] = test system: SR leukemia
# [39] = test system: CCRF-CEM leukemia
# [40] = test system: HL-60(TB) leukemia
# [41] = test system: HCT-116 colon
# [42] = test system: NCI-H226 lung
# [43] = test system: MDA-MB-435
# [44] = test system: BT-549 breast
# [45] = test system: MOLT-4 leukemia
# [46] = test system: K-562 leukemia
# [47] = test system: SNB-19 CNS
# [48] = test system: HCT-15 colon
# [49] = test system: MALME-3M melanoma
# [50] = test system: TK-10 renal
# [51] = test system: UO-31 renal
# [52] = test system: A498 renal
# [53] = test system: EKVX NSCLC
# [54] = test system: SK-MEL-5 melanoma
# [55] = test system: COLO 205 colon
# [56] = test system: DU-145 prostate
# [57] = test system: U251 CNS
# [58] = test system: RPMI-8226 leukemia
# [59] = test system: MDA-N
smiles,measurement,setting,value
N#CC1=C(N)Oc2c(sc3c(Br)cccc23)C1c1ccc(Br)cc1 (configuration not stated),GI50,[1],315 nM
same,TGI,[1],1210 nM
same,GI50,[2],1970 nM
same,TGI,[2],6.18 µM
same,GI50,[3],1770 nM
same,TGI,[3],7.33 µM
same,GI50,[4],424 nM
same,TGI,[4],2230 nM
same,GI50,[5],912 nM
same,TGI,[5],9.37 µM
same,GI50,[6],1460 nM
same,TGI,[6],15.5 µM
same,GI50,[7],1150 nM
same,TGI,[7],10 µM
same,GI50,[8],515 nM
same,TGI,[8],3.5 µM
same,GI50,[9],434 nM
same,TGI,[9],4 µM
same,GI50,[10],1550 nM
same,TGI,[10],15.1 µM
same,GI50,[11],407 nM
same,TGI,[11],3.09 µM
same,GI50,[12],2440 nM
same,TGI,[12],13.5 µM
same,GI50,[13],668 nM
same,TGI,[13],4.51 µM
same,GI50,[14],1580 nM
same,TGI,[14],13.4 µM
same,GI50,[15],434 nM
same,TGI,[15],10.2 µM
same,GI50,[16],397 nM
same,TGI,[16],4.67 µM
same,GI50,[17],588 nM
same,TGI,[17],3.09 µM
same,GI50,[18],636 nM
same,TGI,[18],16.5 µM
same,GI50,[19],380 nM
same,TGI,[19],2850 nM
same,GI50,[20],307 nM
same,TGI,[20],1150 nM
same,GI50,[21],747 nM
same,TGI,[21],3.95 µM
same,GI50,[22],410 nM
same,TGI,[22],2620 nM
same,GI50,[23],3.12 µM
same,TGI,[23],14.3 µM
same,GI50,[24],516 nM
same,TGI,[24],6.32 µM
same,GI50,[25],88 nM
same,TGI,[25],534 nM
same,GI50,[26],887 nM
same,TGI,[26],12.9 µM
same,GI50,[27],1190 nM
same,TGI,[27],15.4 µM
same,GI50,[28],1970 nM
same,TGI,[28],22.2 µM
same,GI50,[29],2330 nM
same,TGI,[29],13.4 µM
same,GI50,[30],382 nM
same,TGI,[30],12.4 µM
same,GI50,[31],1430 nM
same,TGI,[31],5.56 µM
same,GI50,[32],1210 nM
same,TGI,[32],3.7 µM
same,GI50,[33],776 nM
same,TGI,[33],2960 nM
same,GI50,[34],1440 nM
same,TGI,[34],13.3 µM
same,GI50,[35],316 nM
same,TGI,[35],3.38 µM
same,GI50,[36],793 nM
same,TGI,[36],3.02 µM
same,GI50,[37],416 nM
same,TGI,[37],5.14 µM
same,GI50,[38],208 nM
same,TGI,[38],5.91 µM
same,GI50,[39],496 nM
same,TGI,[39],13.6 µM
same,GI50,[40],280 nM
same,TGI,[40],788 nM
same,GI50,[41],407 nM
same,TGI,[41],1840 nM
same,GI50,[42],4.28 µM
same,TGI,[42],20.2 µM
same,GI50,[43],109 nM
same,TGI,[43],460 nM
same,GI50,[44],1320 nM
same,TGI,[44],12.7 µM
same,GI50,[45],546 nM
same,TGI,[45],8.11 µM
same,GI50,[46],137 nM
same,TGI,[46],3.16 µM
same,GI50,[47],707 nM
same,TGI,[47],12.8 µM
same,GI50,[48],601 nM
same,TGI,[48],11.4 µM
same,GI50,[49],1390 nM
same,TGI,[49],20.7 µM
same,GI50,[50],986 nM
same,TGI,[50],2570 nM
same,GI50,[51],1950 nM
same,TGI,[51],11.8 µM
same,GI50,[52],633 nM
same,TGI,[52],9.56 µM
same,GI50,[53],3.31 µM
same,TGI,[53],20.5 µM
same,GI50,[54],2210 nM
same,TGI,[54],14.6 µM
same,GI50,[55],406 nM
same,TGI,[55],1880 nM
same,GI50,[56],571 nM
same,TGI,[56],2820 nM
same,GI50,[57],544 nM
same,TGI,[57],2050 nM
same,GI50,[58],1440 nM
same,TGI,[58],16 µM
CN1CCCOC(c2ccc([N+](=O)[O-])cc2)O1 (configuration not stated),TGI,[59],> 100 µM
same,TGI,[1],> 100000 nM
same,TGI,[2],> 100 µM
same,TGI,[3],> 100 µM
same,TGI,[4],> 100000 nM
same,TGI,[5],> 100 µM
same,TGI,[6],> 100 µM
same,TGI,[7],> 100 µM
same,TGI,[8],> 100 µM
same,TGI,[9],> 100 µM
same,TGI,[10],> 100 µM
same,TGI,[11],> 100 µM
same,TGI,[13],> 100 µM
same,TGI,[14],> 100 µM
same,TGI,[15],> 100 µM
same,TGI,[16],> 100 µM
same,TGI,[17],> 100 µM
same,TGI,[18],> 100 µM
same,TGI,[19],> 100000 nM
same,TGI,[20],> 100000 nM
same,TGI,[21],> 100 µM
same,TGI,[22],> 100000 nM
same,TGI,[23],> 100 µM
same,TGI,[24],> 100 µM
same,TGI,[25],> 100000 nM
same,TGI,[26],> 100 µM
same,TGI,[27],> 100 µM
same,TGI,[28],> 100 µM
same,TGI,[29],> 100 µM
same,TGI,[30],> 100 µM
same,TGI,[31],> 100 µM
same,TGI,[32],> 100 µM
same,TGI,[33],> 100000 nM
same,TGI,[34],> 100 µM
same,TGI,[35],> 100 µM
same,TGI,[36],> 100 µM
same,TGI,[37],> 100 µM
same,TGI,[38],> 100 µM
same,TGI,[39],> 100 µM
same,TGI,[41],> 100000 nM
same,TGI,[42],> 100 µM
same,TGI,[43],> 100000 nM
same,TGI,[44],> 100 µM
same,TGI,[45],> 100 µM
same,TGI,[46],> 100 µM
same,TGI,[47],> 100 µM
same,TGI,[48],> 100 µM
same,TGI,[49],> 100 µM
same,TGI,[50],> 100000 nM
same,TGI,[51],> 100 µM
same,TGI,[52],> 100 µM
same,TGI,[53],> 100 µM
same,TGI,[54],> 100 µM
same,TGI,[55],> 100000 nM
same,TGI,[56],> 100000 nM
same,TGI,[57],> 100000 nM
